Measurements taken from paper PMC9019904, “AD Informer Set: Chemical tools to facilitate Alzheimer's disease drug discovery” (Alzheimer's & Dementia : Translational Research & Clinical …, 2022).
≈ marks a conversion by molar mass, not a printed value.

Legend:
[1] = Kinetic solubility in aqueous buffer pH 7.4 by total chemiluminescent nitrogen determination (Analiza); settings: aqueous buffer, pH 7.4, aqueous buffer, kinetic from dmso stock
[2] = test system: BV2 (mouse microglia) cell line; assay: pHrodo-myelin phagocytosis/cell viability high content imaging assay: phagocytosis signal; assay type: cell-based; settings: BV2 cells, 10 μM
In short: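 HCI read-out ~22 h post pHrodo-myelin; phagocytosis + viability simultaneously; 3 parameters extracted; intensity up = early apoptosis, down = later apoptosis.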

cellular system = settings: published cellular activity at 10 μM; cited from earlier work
[3] = test system: BV2 (mouse microglia) cell line; assay: pHrodo-myelin phagocytosis/cell viability high content imaging assay: viability (cell count, nuclear area, nuclear intensity); settings: BV2 cells, 10 μM, cell count <70% control
In short: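 Cells adhered overnight, then were exposed to compounds at a single 10 μM for 48 h in total, with pHrodo-myelin added for the last 20 h. High-content imaging gave cell count per well as the main viability measure plus mean nuclear intensity per cell. Duplicate wells were averaged and expressed as % of untreated control.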

Row | solubility kinetic [1] | Structure (SMILES) | Stimulation of mouse microglial phagocytosis at 10 μM (>150% control) [2] | Reported as cell active (<10 μM) (cellular system) | Mouse microglial cytotoxicity at 10 μM (<70% control) [3]
1 | 186 µM (≈ 42.8 µg/mL) | CC(=O)c1nc([C@@H](O)[C@H](O)[C@H](O)CO)c[nH]1 [THI] | Y (The compound was found to stimulate phagocytosis (response threshold: >150% control) when murine immortalized microglial cells were dosed at 10 μM (Y: yes)) | Y (Published data supports that the compound is active in a cellular system when dosed at 10 μM (Y/N)) | 
2 | 164 µM (≈ 67.2 µg/mL) | CCc1ccc(S(=O)(=O)c2ccccc2)cc1S(=O)(=O)NCCCN(C)C [sFRP-1 Inhibitor] | Y (The compound was found to stimulate phagocytosis (response threshold: >150% control) when murine immortalized microglial cells were dosed at 10 μM (Y: yes)) | Y (Published data supports that the compound is active in a cellular system when dosed at 10 μM (Y/N)) | 
3 | 166 µM | Nc1ncnc2c1nc(Br)n2[C@@H]1O[C@@H]2COP(=O)([O-])O[C@H]2[C@H]1O.[Na+] [8-Bromo-cAMP (sodium salt)] | Y (The compound was found to stimulate phagocytosis (response threshold: >150% control) when murine immortalized microglial cells were dosed at 10 μM (Y: yes)) | Y (Published data supports that the compound is active in a cellular system when dosed at 10 μM (Y/N)) | 
4 | 2.6 µM (≈ 1.03 µg/mL) | Cc1cc(C)nc(NC(=S)N2CCN(c3ccc(C(F)(F)F)cn3)CC2)c1 [NCT-502] | Y (The compound was found to stimulate phagocytosis (response threshold: >150% control) when murine immortalized microglial cells were dosed at 10 μM (Y: yes)) | Y (Published data supports that the compound is active in a cellular system when dosed at 10 μM (Y/N)) | 
5 | 3.7 µM (≈ 1.49 µg/mL) | CCOC(=O)c1cccc(CNc2ccc(N(C)C(=O)Nc3ccccc3)cc2)c1 [GN6958 (Compound 8)] | Y (The compound was found to stimulate phagocytosis (response threshold: >150% control) when murine immortalized microglial cells were dosed at 10 μM (Y: yes)) | Y (Published data supports that the compound is active in a cellular system when dosed at 10 μM (Y/N)) | 
6 | < 1.1 µM | CCCc1cc(-c2nc(-c3ccc(C)cc3)cs2)ccn1 [Fatostatin] | Y (The compound was found to stimulate phagocytosis (response threshold: >150% control) when murine immortalized microglial cells were dosed at 10 μM (Y: yes)) | Y (Published data supports that the compound is active in a cellular system when dosed at 10 μM (Y/N)) | Y (The compound was found to be cytotoxic (cell count threshold: <70% control) when murine immortalized microglial cells were dosed at 10 μM (Y: yes))
7 | 34.3 µM (≈ 14 µg/mL) | Cc1cc(C)nc(NC(=S)N2CCN(Cc3ccc(C(F)(F)F)cc3)CC2)c1 [NCT-503] | Y (The compound was found to stimulate phagocytosis (response threshold: >150% control) when murine immortalized microglial cells were dosed at 10 μM (Y: yes)) | Y (Published data supports that the compound is active in a cellular system when dosed at 10 μM (Y/N)) | 
8 | 3.7 µM (≈ 1.36 µg/mL) | Oc1c(F)cc(-c2cnccc2-c2ccc(N3CCOCC3)cc2)cc1F [LJI308] | Y (The compound was found to stimulate phagocytosis (response threshold: >150% control) when murine immortalized microglial cells were dosed at 10 μM (Y: yes)) | Y (Published data supports that the compound is active in a cellular system when dosed at 10 μM (Y/N)) | 
